Data published in patent US9051333B2, “6,7-dihydroimidazo [2,1-b] [1,3]oxazine bactericides” (OTSUKA PHARMACEUTICAL CO., LTD., priority 2011, dated 2015).
≈ marks a conversion by molar mass, not a printed value. Where two headings read alike, the source gives them in different places.

System: Mycobacterium tuberculosis (M. tuberculosis kurono)
Test: Antimicrobial Assay (Agar Plate Dilution Method), M. tuberculosis kurono
Format: cell-based
Settings: 336 h, read-out: Minimum Inhibitory Concentration
[1] = M. tuberculosis kurono, 7H11 agar medium, cultured at 37° C. for 14 days

Structure (SMILES): O=[N+]([O-])c1cn2c(n1)O[C@@H](COc1ccc(OC3CCN(Cc4ccc(OCc5ccc(OC(F)(F)F)cc5)cc4)CC3)cc1)CC2 [Example 206, (R)-2-nitro-7-(4-{1-[4-(4-trifluoromethoxybenzyloxy)benzyl]piperidin-4-yloxy}phenoxymethyl)-6,7-dihydro-5H-imidazo[2,1-b][1,3]oxazine]
- MIC [1]: ≤ 1.5 ng/mL

Structure (SMILES): O=[N+]([O-])c1cn2c(n1)OC(COc1ccc(N3CCC(CCOc4ccc(OC(F)(F)F)cc4)CC3)nc1)CC2 (stereo not shown) [Example 79, 2-nitro-7-(6-{4-[2-(4-trifluoromethoxyphenoxy)ethyl]piperidin-1-yl}pyridin-3-yloxymethyl)-6,7-dihydro-5H-imidazo[2,1-b][1,3]oxazine]
- MIC [1]: 12 ng/mL (≈ 0.0213 µM)

Structure (SMILES): O=[N+]([O-])c1cn2c(n1)O[C@@H](COc1ccc3nc(OCc4ccc(OC(F)(F)F)cc4)ccc3c1)CC2 [Example 153, 6-((R)-2-nitro-6,7-dihydro-5H-imidazo[2,1-b][1,3]oxazin-7-ylmethoxy)-2-(4-trifluoromethoxybenzyloxy)quinoline]
- MIC [1]: 24 ng/mL (≈ 0.0465 µM)

Structure (SMILES): O=[N+]([O-])c1cn2c(n1)O[C@H](COc1ccc(-c3ccc(CN4CCC(Oc5ccc(OC(F)(F)F)cc5)CC4)cc3)cc1)CC2 [Example 282, (S)-2-nitro-7-{4′-[4-(4-trifluoromethoxyphenoxy)piperidin-1-ylmethyl]biphenyl-4-yloxymethyl}-6,7-dihydro-5H-imidazo[2,1-b][1,3]oxazine]
- MIC [1]: 6 ng/mL (≈ 0.00961 µM)

Structure (SMILES): CC(C)(c1ccc(OCc2ccc(C(F)(F)F)cc2)cc1)N1CCN(c2ccc(OC[C@H]3CCn4cc([N+](=O)[O-])nc4O3)cc2)CC1 [Example 490, (R)-7-[4-(4-{1-methyl-1-[4-(4-trifluoromethylbenzyloxy)phenyl]ethyl}piperazin-1-yl)phenoxymethyl]-2-nitro-6,7-dihydro-5H-imidazo[2,1-b][1,3]oxazine]
- MIC [1]: 0.8 ng/mL (≈ 0.00123 µM)

Structure (SMILES): O=[N+]([O-])c1cn2c(n1)OC(COc1ccc(N3CCN(Cc4ccc(OC(F)(F)F)cc4)CC3)cc1)CC2 (stereo not shown) [Example 3, 2-nitro-7-{4-[4-(4-trifluoromethoxybenzyl)piperazin-1-yl]phenoxymethyl}-6,7-dihydro-5H-imidazo[2,1-b][1,3]oxazine]
- MIC [1]: 50 ng/mL (≈ 0.0937 µM)

Structure (SMILES): CC1(COc2ccc(N3CCN(C/C=C/c4ccc(OC(F)(F)F)cc4)CC3)cc2)CCn2cc([N+](=O)[O-])nc2O1 (stereo not shown) [Example 411, 7-methyl-2-nitro-7-(4-{4-[(E)-3-(4-trifluoromethoxyphenyl)allyl]piperazin-1-yl}phenoxymethyl)-6,7-dihydro-5H-imidazo[2,1-b][1,3]oxazine]
- MIC [1]: 6 ng/mL (≈ 0.0105 µM)

Structure (SMILES): O=[N+]([O-])c1cn2c(n1)O[C@@H](COc1ccc(-c3ccc(N4CCC(O)(C(F)(F)F)CC4)cc3)cc1)CC2 [Example 379, 1-[4′-((R)-2-nitro-6,7-dihydro-5H-imidazo[2,1-b][1,3]oxazin-7-ylmethoxy)biphenyl-4-yl]-4-trifluoromethylpiperidin-4-ol]
- MIC [1]: 100 ng/mL (≈ 0.193 µM)

Structure (SMILES): O=[N+]([O-])c1cn2c(n1)OC(COc1ccc(-c3csc(-c4ccc(OC(F)(F)F)cc4)n3)cc1)CC2 (stereo not shown) [Example 56, 2-nitro-7-{4-[2-(4-trifluoromethoxyphenyl)thiazol-4-yl]phenoxymethyl}-6,7-dihydro-5H-imidazo[2,1-b][1,3]oxazine]
- MIC [1]: 12 ng/mL (≈ 0.0231 µM)

Structure (SMILES): O=[N+]([O-])c1cn2c(n1)O[C@@H](COc1ccc(N3CCN(CC4CCC(C(F)(F)F)CC4)CC3)cc1)CC2 (stereo partly drawn) [Example 414, (R)-2-nitro-7-{4-[4-(4-trifluoromethyl-cyclohexylmethyl)piperazin-1-yl]phenoxymethyl}-6,7-dihydro-5H-imidazo[2,1-b][1,3]oxazine]
- MIC [1]: 6 ng/mL (≈ 0.0115 µM)

Structure (SMILES): O=[N+]([O-])c1cn2c(n1)OC(COc1ccc(N3CCN(CCCc4ccc(Oc5ccc(OC(F)(F)F)cc5)cc4)CC3)cc1)CC2 (stereo not shown) [Example 64, 2-nitro-7-[4-(4-{3-[4-(4-trifluoromethoxyphenoxy)phenyl]propyl}piperazin-1-yl)phenoxymethyl]-6,7-dihydro-5H-imidazo[2,1-b][1,3]oxazine]
- MIC [1]: ≤ 6 ng/mL

Structure (SMILES): O=[N+]([O-])c1cn2c(n1)OC(COc1ccc(N3CCC(Oc4ccc(OC(F)(F)F)cc4)CC3)cc1)CC2 (stereo not shown) [Example 1, 2-nitro-7-{4-[4-(4-trifluoromethoxyphenoxy)piperidin-1-yl]phenoxymethyl}-6,7-dihydro-5H-imidazo[2,1-b][1,3]oxazine]
- MIC [1]: 24 ng/mL (≈ 0.0449 µM)

Structure (SMILES): O=[N+]([O-])c1cn2c(n1)OC(COc1ccc(N3CCC(Oc4ccc(OC(F)(F)F)cc4)CC3)c(F)c1)CC2 (stereo not shown) [Example 147, 7-{3-fluoro-4-[4-(4-trifluoromethoxyphenoxy)piperidin-1-yl]phenoxymethyl}-2-nitro-6,7-dihydro-5H-imidazo[2,1-b][1,3]oxazine]
- MIC [1]: 50 ng/mL (≈ 0.0905 µM)

Structure (SMILES): O=[N+]([O-])c1cn2c(n1)O[C@@H](COc1ccc(N3CCN(S(=O)(=O)C(F)(F)C(F)(F)C(F)(F)C(F)(F)F)CC3)cc1)CC2 [Example 380, (R)-2-nitro-7-{4-[4-(nonafluorobutane-1-sulfonyl)piperazin-1-yl]phenoxymethyl}-6,7-dihydro-5H-imidazo[2,1-b][1,3]oxazine]
- MIC: 12 ng/mL (≈ 0.0187 µM)

Structure (SMILES): O=[N+]([O-])c1cn2c(n1)OC(COc1ccc3c(c1)CCCN3CCCOc1ccc(OC(F)(F)F)cc1)CC2 (stereo not shown) [Example 143, 6-(2-nitro-6,7-dihydro-5H-imidazo[2,1-b][1,3]oxazin-7-ylmethoxy)-1-[3-(4-trifluoromethoxyphenoxy)propyl]-1,2,3,4-tetrahydroquinoline]
- MIC [1]: 100 ng/mL (≈ 0.182 µM)

Structure (SMILES): O=[N+]([O-])c1cn2c(n1)O[C@H](COc1ccc(N3CCN(Cc4ccc(NCc5ccc(C(F)(F)F)cc5)cc4)CC3)cc1)CC2 [Example 290, N-(4-{4-[4-((S)-2-nitro-6,7-dihydro-5H-imidazo[2,1-b][1,3]oxazin-7-ylmethoxy)phenyl]piperazin-1-ylmethyl}phenyl)-N-(4-trifluoromethylbenzyl)amine]
- MIC [1]: 0.8 ng/mL (≈ 0.00128 µM)

Structure (SMILES): O=[N+]([O-])c1cn2c(n1)O[C@@H](COc1ccc(N3CCC(Oc4ccc(SC(F)(F)F)cc4)CC3)cc1)CC2 [Example 446, (R)-2-nitro-7-{4-[4-(4-trifluoromethylsulfanylphenoxy)piperidin-1-yl]phenoxymethyl}-6,7-dihydro-5H-imidazo[2,1-b][1,3]oxazine]
- MIC [1]: 3 ng/mL (≈ 0.00545 µM)

Structure (SMILES): O=[N+]([O-])c1cn2c(n1)O[C@@H](COc1ccc(N3CCC(CCCOc4cccc(C(F)(F)F)c4)CC3)cc1)CC2 [Example 395, (R)-2-nitro-7-(4-{4-[3-(3-trifluoromethylphenoxy)propyl]piperidin-1-yl}phenoxymethyl)-6,7-dihydro-5H-imidazo[2,1-b][1,3]oxazine]
- MIC [1]: 3 ng/mL (≈ 0.00535 µM)

Structure (SMILES): O=[N+]([O-])c1cn2c(n1)O[C@@H](COc1ccc(N3CCN(Cc4ccc(OCc5ccc(C(F)(F)F)cc5)cc4)CC3)cc1)CC2 [Example 182, (R)-2-nitro-7-(4-{4-[4-(4-trifluoromethylbenzyloxy)benzyl]piperazin-1-yl}phenoxymethyl)-6,7-dihydro-5H-imidazo[2,1-b][1,3]oxazine]
- MIC [1]: ≤ 1.5 ng/mL

Structure (SMILES): O=[N+]([O-])c1cn2c(n1)O[C@@H](COc1ccc(N3CCC(C4CCN(Cc5ccc(C(F)(F)F)cc5)CC4)CC3)cc1)CC2 [Example 415, (R)-2-nitro-7-{4-[1′-(4-trifluoromethylbenzyl)-4,4′-bipiperidin-1-yl]phenoxymethyl}-6,7-dihydro-5H-imidazo[2,1-b][1,3]oxazine]
- MIC [1]: 1.5 ng/mL (≈ 0.0025 µM)

Structure (SMILES): O=[N+]([O-])c1cn2c(n1)OC(COc1ccc(C3CCN(Cc4ccc(OC(F)(F)F)cc4)CC3)cc1)CC2 (stereo not shown) [Example 364, 2-nitro-7-{4-[1-(4-trifluoromethoxybenzyl)piperidin-4-yl]phenoxymethyl}-6,7-dihydro-5H-imidazo[2,1-b][1,3]oxazine]
- MIC [1]: 24 ng/mL (≈ 0.0451 µM)

Structure (SMILES): O=[N+]([O-])c1cn2c(n1)OC(COc1ccc(-c3coc(COc4ccc(OC(F)(F)F)cc4)n3)cc1)CC2 (stereo not shown) [Example 53, 2-nitro-7-{4-[2-(4-trifluoromethoxyphenoxymethyl)oxazol-4-yl]phenoxymethyl}-6,7-dihydro-5H-imidazo[2,1-b][1,3]oxazine]
- MIC [1]: 100 ng/mL (≈ 0.188 µM)

Structure (SMILES): O=[N+]([O-])c1cn2c(n1)O[C@@H](COc1ccc(N3CCC(Cc4ccc(OC(F)(F)F)cc4)CC3)cc1)CC2 [Example 383, (R)-2-nitro-7-{4-[4-(4-trifluoromethoxybenzyl)piperidin-1-yl]phenoxymethyl}-6,7-dihydro-5H-imidazo[2,1-b][1,3]oxazine]
- MIC [1]: 3 ng/mL (≈ 0.00563 µM)

Structure (SMILES): CC1(COc2ccc(N3CCC(CCc4ccc(OC(F)(F)F)cc4)CC3)cc2)CCn2cc([N+](=O)[O-])nc2O1 (stereo not shown) [Example 382, 7-methyl-2-nitro-7-(4-{4-[2-(4-trifluoromethoxyphenyl)ethyl]piperidin-1-yl}phenoxymethyl)-6,7-dihydro-5H-imidazo[2,1-b][1,3]oxazine]
- MIC [1]: 12 ng/mL (≈ 0.0214 µM)

Structure (SMILES): O=[N+]([O-])c1cn2c(n1)O[C@H](COc1ccc(N3CCC(Cc4ccc(OCc5ccc(C(F)(F)F)cc5)cc4)CC3)cc1)CC2 [Example 254, (S)-2-nitro-7-(4-{4-[4-(4-trifluoromethylbenzyloxy)benzyl]piperidin-1-yl}phenoxymethyl)-6,7-dihydro-5H-imidazo[2,1-b][1,3]oxazine]
- MIC [1]: 0.8 ng/mL (≈ 0.00128 µM)

Structure (SMILES): C[C@@H]1CN(c2ccc(OC[C@H]3CCn4cc([N+](=O)[O-])nc4O3)cc2)CCN1Cc1ccc(OCc2ccc(C(F)(F)F)cc2)cc1 [Example 299, (R)-7-(4-{(R)-3-methyl-4-[4-(4-trifluoromethylbenzyloxy)benzyl]piperazin-1-yl}phenoxymethyl)-2-nitro-6,7-dihydro-5H-imidazo[2,1-b][1,3]oxazine]
- MIC [1]: 0.8 ng/mL (≈ 0.00125 µM)

Structure (SMILES): CN(c1ccc(OC(F)(F)F)cc1)C1CCN(c2ccc(OC[C@H]3CCn4cc([N+](=O)[O-])nc4O3)cc2)CC1 [Example 90, N-methyl-N-{1-[4-((R)-2-nitro-6,7-dihydro-5H-imidazo[2,1-b][1,3]oxazin-7-ylmethoxy)phenyl]piperidin-4-yl}-N-(4-trifluoromethoxyphenyl)amine]
- MIC [1]: 12 ng/mL (≈ 0.0219 µM)

Structure (SMILES): O=[N+]([O-])c1cn2c(n1)O[C@@H](COc1ccc(N3CCC(CCCc4ccc(C(F)(F)F)cc4)CC3)cc1)CC2 [Example 400, (R)-2-nitro-7-(4-{4-[3-(4-trifluoromethylphenyl)propyl]piperidin-1-yl}phenoxymethyl)-6,7-dihydro-5H-imidazo[2,1-b][1,3]oxazine]
- MIC [1]: ≤ 0.4 ng/mL
